Results on 22 substances are retold here after patent US20080311189A1, “Compositions Comprising Organometallic Molybdenum Compounds For Treating Cancer” (priority 2004, published 2008).

Type in all cases: cell-based
The test system of experiment [1] is Ehrlich ascites mouse tumor cell line. In words: MTT viability assay, Ehrlich ascites cells. As to conditions: Ehrlich ascites mouse cancer cells, 3 hours incubation with drug, read 24 hours after removal of the drug. As for the experimental part:
(§1) The cytotoxic activity of theses complexes was evaluated against 6 different cell lines, using the MTT assay (3-(4,5-dimethylthiazol-2-yl)-2,5-diphenyltetrazolium bromide assay) (Mosmann, T. J. Immunol. Methods, 1983, 65, 55-63) to measure the cell viability.
(§2) Cell lines were routinely propagated in 75 cm^2 tissue culture flasks (SARSTEDT, Leicester, U.K.), in a humidified atmosphere of 5% CO2 in air at 37° C., and were trypsinized and harvested into new medium every 2-4 days, just before confluence. Cell lines were cultured for a minimum of two passages after thawing prior to experimentation.
The Ehrlich ascites mouse tumor cell line was purchased at ECACC (European Collection of Cell culture) and propagated in NCTC-135 medium (Sigma, ref. N3262) 2 mM in L-glutamine, supplemented with 10% heat-inactivated fetal bovine serum (FBS) and 1% penicillin/streptomycin.
(§3) This assay is based on the capacity of mitochondrial dehydrogenase enzymes in living cells to convert the yellow water soluble substrate (MTI) into a dark blue product which is quantified by spectrophotometric means. Briefly, exponentially growing cells were trypsinized, dispensed in sixplicates into 96-well tissue culture plates and allowed to attach overnight. The next day the cells were treated with various concentrations of the drug, ranging from 1 to 1000 μM. By addition of an adequate volume of a freshly prepared DMSO solution of the compound to the medium, the desired test concentrations were obtained. For. each test concentration and for the control which contained the corresponding amount of DMSO, 6 wells were used. After an incubation period of 3 hours the cells were carefully washed (twice) with phosphate buffer saline (PBS) and 100 μl of medium were added. The cells were incubated for 24 hours and 10 μl of a MTT solution (5 mg/ml) were added to each well. The tetrazolium/formazan reaction was allowed to proceed for 4 hours and the medium was carefully removed. The dark blue formazan crystals were dissolved by adding 150 μl of DMSO and agitating for 15 minutes in a plate shaker. The optical density was measured at […] using a 96-well multiscanner autoreader. The percentage of survival was calculated using the formula: % survival=live cell number [test]/live cell number [control]×100. The IC50 values were calculated by nonlinear regression analysis using the graphed Prism software (GraphPad Software, Inc., San Diego, Calif.) and are compiled in tables 2-4.
(§4) Using the colorimetric mitochondrial function-based MTT viability assay, we examined the effects of molybdenum (II) complexes against 6 different cell lines, by measuring the cellular proliferation at 8 different concentrations ranging from 1 to 1000 μM, 24 hours after removal of the drug. The IC50 values were calculated from dose-response curves obtained by nonlinear regression analysis. FIG. 4 represent and compare dose-response curves obtained for several molybdenum compounds against the Ehrlich ascites mouse cell line.
(In general: Tetrazolium dyes change colour on reduction, which living cells bring about.)

Experiment [2] concerns non-tumoral MRC-5 human fibroblast. As to the kind of experiment: MTT viability assay, non-tumoral human fibroblasts. As to conditions: MRC-5 human fibroblasts, 3 hours incubation with drug, 24 hours after removal. As for the experimental part: as §1, §2
The […] cells, secondary human lung fibroblasts, were purchased at ECACC. The cells were grown in MEM with Earls' Salt and L-glutamine (Gibco, ref. 61100-053), supplemented with 10% fetal bovine serum (FBS) and 1% neomycin.
as §3, §4

For experiment [3], the system named is MKN45 gastric human cell line. As to the kind of experiment: MTT viability assay, MKN-45 cells. As to conditions: 3 hours incubation with drug, 24 hours after removal, read-out: IC50 VALUE, Human tumoral cell lines, Gastric MKN-45. The method, then:
as §1, §2
(§5) The tumoral MKN45 gastric and HT-29 colorectal human cell lines were purchased at ECACC. […]
(§6) This assay is based on the capacity of mitochondrial dehydrogenase enzymes in living cells to convert the yellow water soluble substrate (MTI) into a dark blue product which is quantified by spectrophotometric means. […] The optical density was measured at […] using a 96-well multiscanner autoreader. The percentage of survival was calculated using the formula: % survival=live cell number [test]/live cell number [control]×100. The IC50 values were calculated by nonlinear regression analysis using the graphed Prism software (GraphPad Software, Inc., San Diego, Calif.) and are compiled in tables 2-4. […]

In experiment [4] the test system is HT-29 colorectal human cell line. In words: MTT viability assay, HT-29 cells. As to conditions: 3 hours incubation with drug, 24 hours after removal, read-out: IC50 VALUE, Human tumoral cell lines, Colon HT-29. The method, then: as §1, §2, §5, §6
In experiment [5] the test system is GP-220 gastric human cell line. As to the kind of experiment: MTT viability assay, GP-220 cells. As to conditions: 3 hours incubation with drug, 24 hours after removal, read-out: IC50 VALUE, Human tumoral cell lines, Gastric GP-220. The method, then: as §1, §2
(§7) The tumnoral GP-202 and GP-220 gastric human cell lines were established at IPATIMUP (Instituto de Patologia e Imunologia Molecular da Universidade do Porto). […]
as §6

The test system of experiment [6] is GP-202 gastric human cell line. In words: MTT viability assay, GP-202 cells. As to conditions: 3 hours incubation with drug, 24 hours after removal, read-out: IC50 VALUE, Human tumoral cell lines, Gastric GP-202. The method, then: as §1, §2, §7, §6

In the case of “(η^3-C3H5)Mo(CO)2(1,10-phen)Br [Compound 24]”, in experiment [1], the IC50 – broadly, the concentration at which inhibition is half-maximal – came to 7.3 ± 1 µM.

As for “(η^3-C3H5)Mo(CO)2(2,3-Me2-p-tolilDAB)Br [Compound 23]”, the values for the 50% inhibitory concentration (IC50) in experiment [2] and in experiment [1] were 104 ± 1.1 µM and 59.1 ± 1.1 µM, respectively.

For “(η^3-C3H5)Mo(CO)2(4,7-diphenyl-1,10-phen)Br [Compound 25]”, the IC50 in experiment [2] is 12.1 ± 1.1 µM; in experiment [1] it was 12.5 ± 1.2 µM.

Consider [(η^5-Cp)Mo(CO)2dppe]BF4 [Compound 21], for which the half-inhibitory concentration (IC50) in experiment [2] is 24 ± 1 µM; in experiment [1], 20 ± 1.1 µM.

“[(η^5-Cp)Mo(CO)2trithiane]BF4 [Compound 19]”: in experiment [1], half-maximal inhibition (IC50) required 142.1 ± 1.1 µM.

[(η^5-Cp)Mo(CO)2tten]BF4 [Compound 20]: the IC50 in experiment [2] is 139.8 ± 1.2 µM; in experiment [1], 138.9 ± 1.2 µM.

As to “[(η^5-Cp)Mo(CO)2{5,6-Ph2-3-(2-py)-1,2,4-Tz}]BF4 [Compound 22]”, the results for the IC50 in experiment [2] and in experiment [1] were 68.9 ± 1.1 µM and 105 ± 1.2 µM, respectively.

For “[(η^5-Ind)Mo(CO)2(1,4,7,10-tetrt)]BF4 [Compound 17]”, the IC50 stood at 213.5 ± 1.1 µM in experiment [2] and 19.9 ± 1.1 µM in experiment [1].

Turning to “[(η^5-Ind)Mo(CO)2(2,2′-biq)]BF4 [Compound 8]”, the half-inhibitory concentration (IC50) came to 13 ± 1 µM in experiment [2]; 35 ± 1.1 µM in experiment [1]; 4.4 ± 1 µM in experiment [3]; 13.3 ± 1.1 µM in experiment [4]; 2.7 ± 1 µM in experiment [5]; 5 ± 1.1 µM in experiment [6].

In experiment [1], “[(η^5-Ind)Mo(CO)2(4,4′-Ph2-2,2′-bpy)]BF4 [Compound 2]” yielded an IC50 of 13.7 ± 1.1 µM.

Take “[(η^5-Ind)Mo(CO)2(4,7-Me2-1,10-phen)]BF4 [Compound 7]”: the concentration for half-maximal inhibition (IC50) in experiment [2] was found to be 64.4 ± 1.1 µM; in experiment [1] it was 29.5 ± 1 µM.

“[(η^5-Ind)Mo(CO)2(4,7-Ph2-1,10-phen)]BF4 [Compound 6]”: the half-inhibitory concentration (IC50) in experiment [2] came out at 14.9 ± 1 µM; in experiment [1], 5.7 ± 1 µM; in experiment [3], 4.6 ± 1.1 µM; in experiment [4], 6.6 ± 1 µM; in experiment [5], 1.8 ± 1.1 µM; in experiment [6] it was 4.2 ± 1.1 µM.

In the case of “[(η^5-Ind)Mo(CO)2(CYDAB)]BF4 [Compound 4]”, the figures for the half-inhibitory concentration (IC50) in experiment [2] and in experiment [1] were 75 ± 1.1 µM and 140.3 ± 1.2 µM, respectively.

Consider “[(η^5-Ind)Mo(CO)2(NCMe)2]BF4 [Compound 18]”, for which the IC50 in experiment [1] worked out at 56.7 ± 1.7 µM.

Turning to “[(η^5-Ind)Mo(CO)2(p-tolilDAB)]BF4 [Compound 3]”, the IC50 in experiment [2] came out at 84.1 ± 1 µM; in experiment [1], 6.6 ± 1 µM.

On to [(η^5-Ind)Mo(CO)2bpy]BF4 [Compound 1], for which the IC50 in experiment [2] was 143.2 ± 1.1 µM; in experiment [1] it was 95.9 ± 1.1 µM.

For the substance [(η^5-Ind)Mo(CO)2dppe]BF4 [Compound 14], the IC50 in experiment [2] amounted to 20.3 ± 1.1 µM; in experiment [1], 5.8 ± 1.1 µM.

With [(η^5-Ind)Mo(CO)2phen]BF4 [Compound 5], the IC50 in experiment [2] amounted to 73.3 ± 1.1 µM; in experiment [1] it was 32.9 ± 1 µM.

For “[(η^5-Ind)Mo(CO)2trithiane]BF4 [Compound 15]”, the values for the IC50 in experiment [2] and in experiment [1] were 136.6 ± 1 µM and 20.7 ± 1 µM, respectively.

In the case of [(η^5-Ind)Mo(CO)2tten]BF4 [Compound 16], the figures for the half-inhibitory concentration (IC50) in experiment [2] and in experiment [1] were 91 ± 1.1 µM and 8.4 ± 1.1 µM, respectively.

Turning to “[(η^5-Ind)Mo(CO)2{1,2-Ph(NH2)2}]BF4 [Compound 13]”, the IC50 in experiment [2] was 73.7 ± 1.1 µM; in experiment [1], 67.6 ± 1.2 µM.

Take “[(η^5-Ind)Mo(CO)2{5,6-Ph2-3-(2-py)-1,2,4-Tz}]BF4 [Compound 9]”: in experiment [2], the half-maximal inhibitory concentration (IC50) came to 13.4 ± 1 µM.
